Common to all, as to type: functional
Test [1] has as its system Enterococcus faecalis. As to the kind of experiment: Antimicrobial activity against Enterococcus faecalis VanB assessed as growth inhibition at 0.12 ug/ml by broth microdilution method.
Test [2] has as its system Staphylococcus. As to the kind of experiment: Antimicrobial activity against Oxacillin-resistant coagulase-negative Staphylococcus assessed as percent resistant isolate by broth microdilution method.
Test [3] has as its system Enterococcus faecalis. As to the kind of experiment: Antimicrobial activity against Enterococcus faecalis VanB assessed as growth inhibition at 1 ug/ml by broth microdilution method. For orientation: In broth dilution the organism is exposed to a series of concentrations in liquid medium.
In test [4] the test system is Enterococcus faecalis. As to the kind of experiment: Antimicrobial activity against Enterococcus faecalis VanA assessed as growth inhibition at 0.25 ug/ml by broth microdilution method.
Test [5] concerns Enterococcus faecium. As to the kind of experiment: Antimicrobial activity against Enterococcus faecium VanB assessed as growth inhibition at =<[…] ug/ml by broth microdilution method.
In test [6] the test system is Enterococcus faecalis. As to the kind of experiment: Antimicrobial activity against Enterococcus faecalis VanB assessed as growth inhibition at 0.25 ug/ml by broth microdilution method.
For test [7], the system named is Enterococcus faecalis. As to the kind of experiment: Antimicrobial activity against Enterococcus faecalis VanA assessed as growth inhibition at 0.5 ug/ml by broth microdilution method.
Test [8] concerns Streptococcus sp. 'group A'. As to the kind of experiment: Antimicrobial activity against Beta-hemolytic Streptococcus sp. 'group A' assessed as growth inhibition at =<[…] ug/ml by broth microdilution method.
Test [9] deals with Enterococcus faecalis. As to the kind of experiment: Antimicrobial activity against Enterococcus faecalis VanA assessed as growth inhibition at 4 ug/ml by broth microdilution method.
In test [10] the test system is Enterococcus faecalis. As to the kind of experiment: Antimicrobial activity against Enterococcus faecalis VanA assessed as growth inhibition at =<[…] ug/ml by broth microdilution method.
Test [11] concerns Enterococcus faecium. As to the kind of experiment: Antimicrobial activity against Enterococcus faecium VanA assessed as growth inhibition at 1 ug/ml by broth microdilution method.
In test [12] the test system is Enterococcus faecalis. As to the kind of experiment: Antimicrobial activity against Enterococcus faecalis VanA assessed as growth inhibition at 0.12 ug/ml by broth microdilution method.
Test [13] deals with Staphylococcus aureus. As to the kind of experiment: Antimicrobial activity against Oxacillin-resistant Staphylococcus aureus assessed as percent resistant isolate by broth microdilution method.
Test [14] has as its system Enterococcus faecium. As to the kind of experiment: Antimicrobial activity against Enterococcus faecium VanA assessed as growth inhibition at 0.12 ug/ml by broth microdilution method.
The test system of test [15] is Enterococcus faecalis. As to the kind of experiment: Antimicrobial activity against Enterococcus faecalis VanB assessed as growth inhibition at 0.5 ug/ml by broth microdilution method.
Test [16] deals with Streptococcus. As to the kind of experiment: Antimicrobial activity against Beta-hemolytic Streptococcus assessed as percent susceptible isolate by broth microdilution method.

Usually inhibition stands for the percentage by which the read-out fell short of the control. On to `CN[C@H](CC(C)C)C(=O)N[C@H]1C(=O)N[C@@H](CC(N)=O)C(=O)N[C@H]2C(=O)N[C@H]3C(=O)N[C@H](C(=O)N[C@H](C(=O)O)c4cc(O)cc(O)c4-c4cc3ccc4O)[C@H](O)c3ccc(c(Cl)c3)Oc3cc2cc(c3O[C@@H]2O[C@H](CO)[C@@H](O)[C@H](O)[C@H]2O[C@H]2C[C@](C)(N)[C@H](O)[C@H](C)O2)Oc2ccc(cc2Cl)[C@H]1O` [VANCOMYCIN], for which the inhibition at 0.12 µg/mL came out at 70.2% in test [1], 2.6% in [12] and 1.2% in [14]. For the same compound, the Activity in test [2] was found to be 0%; in test [13], 0%; in test [16] it was 100%. For the same compound, the results for the inhibition at 1 µg/mL in test [3] and in test [11] were 78.6% and 11.5%, respectively. Also, the inhibition at 0.25 µg/mL in test [4] came out at 3.9%; in test [6] it was 70.2%. For the same compound, the “inhibition (INH)” value in test [5] is listed as 26.1%; in test [8], 98.8%; in test [10], 0.4%. Further, the inhibition at 0.5 µg/mL was found to be 4.3% in [7] and 75% in test [15]. In addition, the inhibition at 4 µg/mL in test [9] came out at 14.8%.

For the origin of these results see ChEMBL document CHEMBL1629667, “Activities of dalbavancin against a worldwide collection of 81,673 gram-positive bacterial isolates” (2009).
